Source: patent publication US20220054548A1, “MIRNA FOR USE IN THERAPY” (King's College London, priority 2018, published 2022)
“Also recorded” adds a separate entry of the source.

How the values were obtained:
miR-142-deficient TREGS = assay: Co-culture TREG suppression assay ex vivo after 4 weeks of in vivo cilostamide treatment; set-up: species or system mouse; details: TREGS isolated ex vivo after 4 weeks of cilostamide treatment
From the text: In vitro Suppression Assay. CD4^+ T cells were isolated from pooled peripheral lymph nodes and spleens of 5-6 week old mice using CD4 microbeads (Miltenyi Biotec). Cells were labeled with fluorochrome-conjugated anti-mouse antibodies to CD4, CD62L, CD44 and CD25 (eBioscience) and sorted using a BD FACSAria II flow cytometric cell sorter (BD Biosciences) to >95% purity for YFP^+ CD4^+ cells (TREGS) and naïve (CD25−, CD62L+, CD44−) CD4+ T cells (TEFFS). An aliquot of the sorted TREG population was stained with Live-Dead and anti-CD25 antibodies, fixed and permeabilised, then stained for FoxP3 and acquired on a flow cytometer (as before) to confirm purity. […] After 72 hours in culture, the cells were stained with fluorochrome-conjugated anti-mouse antibodies to Live/Dead (Life Technologies) and then proliferation of the TEFFS was assessed by flow cytometry based on Cell Trace Violet dilution (excluding YFP+ and dead cells). The numbers of non-proliferating cells (events in the first peak) and precursors of proliferating cells were calculated using standard formulae. Percentage suppression (S) of proliferation was calculated using the formula: […]
In vivo cilostamide treatment. […] The mice were weighed every other day and monitored for signs of disease. […]

TREG^Δ142 mice = assay: In vivo cilostamide treatment of TREG^Δ142 mice (weight, survival); set-up: species or system mouse; details: 6.4 mg/kg intra-peritoneal cilostamide on alternate days from 8 weeks of age
Procedure: In vivo cilostamide treatment. Littermate TREG^Δ142 and WT mice were treated from 8 weeks of age with alternate day intra-peritoneal injections of either 6.4 mg/kg cilostamide (Sigma) in PBS 10% DMSO, or a control solution of PBS 10% DMSO. The mice were weighed every other day and monitored for signs of disease. A proportion of mice were sacrificed after 4 weeks of treatment and TREGS were isolated directly ex vivo for use in an in vitro co-culture suppression assay (as before). A proportion of mice were kept alive for as long as possible (either until they lost more than 15% of their body weight and had to be euthanised, or until the end of the experiment).

[1] = tested on: TREGS from WT and TREG^Δ142 mice; assay: In vitro co-culture suppression assay after in vitro cilostamide treatment; assay type: cell-based, mouse
From the text: In vitro Suppression Assay. CD4^+ T cells were isolated from pooled peripheral lymph nodes and spleens of 5-6 week old mice using CD4 microbeads (Miltenyi Biotec). Cells were labeled with fluorochrome-conjugated anti-mouse antibodies to CD4, CD62L, CD44 and CD25 (eBioscience) and sorted using a BD FACSAria II flow cytometric cell sorter (BD Biosciences) to >95% purity for YFP^+ CD4^+ cells (TREGS) and naïve (CD25−, CD62L+, CD44−) CD4+ T cells (TEFFS). An aliquot of the sorted TREG population was stained with Live-Dead and anti-CD25 antibodies, fixed and permeabilised, then stained for FoxP3 and acquired on a flow cytometer (as before) to confirm purity. The TEFFS were labeled with 10 μM Cell Trace Violet (Life Technologies) according to the manufacturer's instructions, washed and then cultured in a 96-well U-bottom plate alone or with TREGS at ratios ranging from (TEFF:TREG) 1:1 to 32:1, in triplicate, in the presence of anti-CD3 and anti-CD28 Dynabeads (Life Technologies) at a bead:cell ratio of 2:1, and RPMI 1640 cell culture medium (Gibco, Life Technologies) supplemented with 10% fetal calf serum, 50 μM 2-Mercapto-ethanol, […] L-glutamine, pyruvate, HEPES, non-essential amino acids and antibiotics at 37° C. 5% CO2. All 4 possible combinations of TREGS and TEFFS from each group were utilised. After 72 hours in culture, the cells were stained with fluorochrome-conjugated anti-mouse antibodies to Live/Dead (Life Technologies) and then proliferation of the TEFFS was assessed by flow cytometry based on Cell Trace Violet dilution (excluding YFP+ and dead cells). The numbers of non-proliferating cells (events in the first peak) and precursors of proliferating cells were calculated using standard formulae. Percentage suppression (S) of proliferation was calculated using the formula: […]
In vitro Cilostamide treatment. […] They were then cultured in the presence of 10 μM cilostamide (Sigma Aldrich), or equivalent PBS/DMSO control for 48 hours before being washed twice, counted and used in an in vitro co-culture suppression assay, as above. […]

CN(C(=O)CCCOc1ccc2[nH]c(=O)ccc2c1)C1CCCCC1 [cilostamide]
Suppressive activity of miR-142-deficient TREGS (miR-142-deficient TREGS): fully restored suppressive activity
Lethal autoimmune disease (weight and survival) (TREG^Δ142 mice): prevented lethal autoimmune disease
TREG suppressive function (suppression of TEFF proliferation) ([1]; TEFFS pre-treated with cilostamide): No rescue of suppressive function
TREG suppressive function (suppression of TEFF proliferation) ([1]; TREG^Δ142 TREGS pre-treated with cilostamide 10 μM prior to co-culture with untreated TEFFS in the absence of cilostamide): restored the suppressive function; also recorded: no significant difference
TREG suppressive capacity ([1]; WT TREGS treated with cilostamide in vitro, compared with WT TREGS): marginal augmentation of ex vivo suppressive capacity
